Reference: ChEMBL document CHEMBL3621093, “Design, synthesis and evaluation of thiohydantoin derivatives as potent topoisomerase I (Top1) inhibitors with anticancer activity” (Eur J Med Chem, 2015)
Activity calls are given as the source filed them. The calls are words filed in the database; no cut-off is given here.

Assays:
DNA topoisomerase 1 = biological target: T1, DNA topoisomerase 1 (Homo sapiens, UniProt P11387); test: Inhibition of wild type recombinant human Top1 expressed in baculovirus infected insect Sf9 cells assessed as decrease in supercoiled pBS(SK+) DNA isomer relaxation preincubated for 5 mins followed by pBS(SK+) DNA addition by agarose gel electrophoresis
T1 sequence (P11387 whole entry): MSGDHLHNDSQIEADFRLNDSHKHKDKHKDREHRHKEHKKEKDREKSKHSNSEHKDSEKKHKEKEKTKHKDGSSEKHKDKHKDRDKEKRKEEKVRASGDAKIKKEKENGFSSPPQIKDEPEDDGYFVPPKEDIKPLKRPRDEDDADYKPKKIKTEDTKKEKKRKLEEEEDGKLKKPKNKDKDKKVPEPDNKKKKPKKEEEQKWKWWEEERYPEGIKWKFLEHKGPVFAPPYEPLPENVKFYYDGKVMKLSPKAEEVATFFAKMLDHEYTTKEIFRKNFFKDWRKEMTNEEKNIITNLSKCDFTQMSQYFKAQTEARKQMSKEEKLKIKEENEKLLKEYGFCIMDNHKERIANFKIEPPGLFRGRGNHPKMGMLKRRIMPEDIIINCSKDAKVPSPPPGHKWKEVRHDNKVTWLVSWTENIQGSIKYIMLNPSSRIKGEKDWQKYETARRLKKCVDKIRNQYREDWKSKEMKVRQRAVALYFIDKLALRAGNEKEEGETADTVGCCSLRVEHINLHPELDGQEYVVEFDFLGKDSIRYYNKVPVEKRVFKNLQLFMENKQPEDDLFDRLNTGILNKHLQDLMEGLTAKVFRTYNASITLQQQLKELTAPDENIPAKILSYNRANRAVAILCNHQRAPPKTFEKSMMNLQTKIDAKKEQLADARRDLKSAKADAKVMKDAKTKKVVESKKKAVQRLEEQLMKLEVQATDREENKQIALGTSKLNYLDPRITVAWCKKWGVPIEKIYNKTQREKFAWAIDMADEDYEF

[1] = Inhibition of Leishmania donovani Top1 (large/ small subunits) expressed in Escherichia coli BL21 (DE3) pLysS cells assessed as decrease in supercoiled pBS(SK+) DNA isomer relaxation preincubated for 5 mins followed by pBS(SK+) DNA addition by agarose gel electrophoresis
HCT-116 = test: Cytotoxicity against human HCT116 cells assessed as inhibition of cell viability after 72 hrs by MTT assay; format: functional, cell-based; conditions: HCT-116, 72 h
[2] = biological target: T2, DNA topoisomerase 1 (Homo sapiens) (UniProt P11387); test: Inhibition of wild type recombinant human Top1 expressed in baculovirus infected insect Sf9 cells assessed as stabilization of Top1-cleavage complexes at 50 to 200 uM incubated for 30 mins by agarose gel electrophoresis
T2 sequence (whole entry): T1 sequence (P11387 whole entry)

[3] = biological target: T2, DNA topoisomerase 1 (Homo sapiens); test: Inhibition of human Top1 in human MCF7 cells assessed as decrease in supercoiled pBS(SK+) DNA isomer relaxation at 5 to 200 uM incubated simultaneously with enzyme and pBS(SK+) DNA for 30 mins by agarose gel electrophoresis; format: cell-based
MCF7 = test: Cytotoxicity against human MCF7 cells assessed as inhibition of cell viability after 72 hrs by MTT assay; format: functional, cell-based; conditions: MCF7, 72 h
[4] = biological target: T2, DNA topoisomerase 1 (Homo sapiens); test: Inhibition of wild type recombinant human Top1 expressed in baculovirus infected insect Sf9 cells assessed as decrease in supercoiled pBS(SK+) DNA isomer relaxation at 5 to 200 uM incubated simultaneously with enzyme and pBS(SK+) DNA for 30 mins by agarose gel electrophoresis
HeLa = test: Cytotoxicity against human HeLa cells assessed as inhibition of cell viability after 72 hrs by MTT assay; format: functional, cell-based
[5] = Toxicity in HEK293 cells assessed as inhibition of cell viability after 72 hrs by MTT assay; format: cell-based; conditions: human
Leishmania donovani = test: Inhibition of Leishmania donovani Top1 (large/ small subunits) expressed in Escherichia coli BL21 (DE3) pLysS cells assessed as decrease in supercoiled pBS(SK+) DNA isomer relaxation at 5 to 200 uM incubated simultaneously with enzyme and pBS(SK+) DNA for 30 mins by agarose gel electrophoresis
[6] = biological target: T2, DNA topoisomerase 1 (Homo sapiens); test: Inhibition of human Top1 in human MCF7 cells assessed as decrease in supercoiled pBS(SK+) DNA isomer relaxation at 5 to 200 uM preincubated for 5 mins followed by pBS(SK+) DNA addition by agarose gel electrophoresis; format: cell-based

Row | SMILES | EC50 (DNA topoisomerase 1) [µM] | EC50 [1] [µM] | other results
1 | Cc1cc(C)cc(/C=C2/NC(=O)NC2=O)c1 | > 100 | > 100 | 
2 | Cc1ccc(/C=C2/NC(=O)NC2=O)cc1 | > 100 | > 100 | 
3 | Cc1ccc(/C=C2/NC(=S)NC2=O)cc1 | > 100 | > 100 | 
4 | COc1ccc(-c2ccc(/C=C3/NC(=O)NC3=O)s2)cn1 | > 100 | > 100 | 
5 | COc1ccc(/C=C2/NC(=O)NC2=O)cc1C | > 100 | > 100 | 
6 | COc1ccc(-c2csc(/C=C3/NC(=O)NC3=O)c2)cn1 | > 100 | > 100 | 
7 | COc1cc(/C=C2/NC(=O)NC2=O)cc(OC)c1OC | > 100 | > 100 | 
8 | O=C1NC(=O)/C(=C\c2cc(Br)cs2)N1 | > 100 | > 100 | 
9 | COc1ccc(/C=C2/NC(=S)NC2=O)cc1OC | > 100 | > 100 | 
10 | O=C1NC(=S)N/C1=C/c1ccc([N+](=O)[O-])cc1 | > 100 | > 100 | 

Now from value to molecule, other results behind:

Row | EC50 (DNA topoisomerase 1) [µM] | EC50 [1] [µM] | SMILES | other results
11 | > 100 | > 100 | COc1cccc(/C=C2/NC(=S)NC2=O)c1 | 
12 | > 100 | > 100 | COc1ccc(/C=C2/NC(=S)NC2=O)cc1C | 
13 | > 100 | > 100 | COc1ccc(/C=C2/NC(=S)NC2=O)cc1 | 
14 | > 100 | > 100 | COc1ccc(/C=C2/NC(=O)NC2=O)cc1OC | 
15 | 93.2 | > 100 | COc1cc(/C=C2/NC(=S)NC2=O)cc(OC)c1OC | 
16 | > 100 | > 100 | O=C1NC(=S)N/C1=C/c1cc(Br)cs1 | 
17 | 30.3 | 63.1 | COc1ccc(-c2csc(/C=C3/NC(=S)NC3=O)c2)cn1 | 
18 | 48.9 | > 100 | Cn1cc(/C=C2/NC(=S)NC2=O)c2ccccc21 | 
19 | 10.1 | 65.2 | COc1ccc(-c2ccc(/C=C3/NC(=S)NC3=O)s2)cn1 | IC50 (HCT-116): > 50 µM; inhibition [2]: Active; inhibition [3]: Active; IC50 (MCF7): 11.4 µM; inhibition [4]: Active; IC50 (HeLa): 1.1 µM; IC50 at 72 h [5]: > 50 µM; inhibition (Leishmania donovani): Active; inhibition [6]: Active
20 | 27.7 | 54.8 | O=C1NC(=S)N/C1=C/c1ccc(-c2cccnc2)s1 | 
